Measured values reported in PMC4515243, “Phase 1 pharmacokinetic study of the oral pan-AKT inhibitor MK-2206 in Japanese patients with advanced solid tumors” (Cancer Chemotherapy and Pharmacology, 2015).
Several values for one entry are separate records, joined by “and”; a condition that tells them apart may be missing. Equal entries are not always repeated.

Test system: Japanese patients with advanced solid tumors
Test: phase 1 safety and tolerability (DLT, adverse events) in Japanese patients;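 also: toxicities graded by NCI CTCAE version 3.0, treatment given until disease progression or unacceptable toxicity, three to nine patients enrolled per dose level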
[1] = all cohorts (n = 24), all treatment cycles

Text: Treatment was continued until disease progression or the occurrence of an unacceptable toxicity.
A minimum of three and up to nine patients were enrolled at each dose level based on the toxicity probability intervals [9].
Adverse events were graded using the National Cancer Institute Common Terminology Criteria for Adverse Events, version 3.0.

NC1(c2ccc(-c3nc4ccn5c(=O)[nH]nc5c4cc3-c3ccccc3)cc2)CCC1 [MK-2206]
Eosinophilia, drug-related adverse event, patients (135 mg QW (n = 3), Grades 3–5): 0 | Erythema multiforme, drug-related adverse event, patients (135 mg QW (n = 3), Grades 3–5): 0 | Fatigue, drug-related adverse event, patients (135 mg QW (n = 3), Grades 3–5): 0 | HbA1C increased, drug-related adverse event, patients (135 mg QW (n = 3), Grades 3–5): 0 | Hyperglycemia, drug-related adverse event, patients (135 mg QW (n = 3), Grades 3–5): 0 | Hypernatremia, drug-related adverse event, patients (135 mg QW (n = 3), Grades 3–5): 0 | Hypoalbuminemia, drug-related adverse event, patients (135 mg QW (n = 3), Grades 3–5): 0 | Hypokalemia, drug-related adverse event, patients (135 mg QW (n = 3), Grades 3–5): 0 | Insulin c-peptide increased, drug-related adverse event, patients (135 mg QW (n = 3), Grades 3–5): 0 | Leukopenia, drug-related adverse event, patients (135 mg QW (n = 3), Grades 3–5): 0 | Localized edema, drug-related adverse event, patients (135 mg QW (n = 3), Grades 3–5): 0 | Lymphopenia, drug-related adverse event, patients (135 mg QW (n = 3), Grades 3–5): 0 | Nausea, drug-related adverse event, patients (135 mg QW (n = 3), Grades 3–5): 0 | Neutropenia, drug-related adverse event, patients (135 mg QW (n = 3), Grades 3–5): 0 | Palmar-plantar erythrodysaesthesia syndrome, drug-related adverse event, patients (135 mg QW (n = 3), Grades 3–5): 0 | Pruritus, drug-related adverse event, patients (135 mg QW (n = 3), Grades 3–5): 0 | Pyrexia, drug-related adverse event, patients (135 mg QW (n = 3), Grades 3–5): 0 | Rash, drug-related adverse event, patients (135 mg QW (n = 3), Grades 3–5): 0 | Stomatitis, drug-related adverse event, patients (135 mg QW (n = 3), Grades 3–5): 0 | Vomiting, drug-related adverse event, patients (135 mg QW (n = 3), Grades 3–5): 0 | patients who discontinued treatment because of grade 2 rash (200 mg QW): One patient | patients with DLTs during Cycle 1 (200 mg QW): Three of the nine | ALT increased, drug-related adverse event, patients (200 mg QW (n = 9), All grades): 3 | Blood creatinine increased, drug-related adverse event, patients (200 mg QW (n = 9), All grades): 6 | Decreased appetite, drug-related adverse event, patients (200 mg QW (n = 9), All grades): 4 | Diarrhea, drug-related adverse event, patients (200 mg QW (n = 9), All grades): 3 | Dry skin, drug-related adverse event, patients (200 mg QW (n = 9), All grades): 2 | Eosinophil count increased, drug-related adverse event, patients (200 mg QW (n = 9), All grades): 5 | Eosinophilia, drug-related adverse event, patients (200 mg QW (n = 9), All grades): 4 | Erythema multiforme, drug-related adverse event, patients (200 mg QW (n = 9), All grades): 4 | Fatigue, drug-related adverse event, patients (200 mg QW (n = 9), All grades): 4 | HbA1C increased, drug-related adverse event, patients (200 mg QW (n = 9), All grades): 4 | Hyperglycemia, drug-related adverse event, patients (200 mg QW (n = 9), All grades): 6 | Hypernatremia, drug-related adverse event, patients (200 mg QW (n = 9), All grades): 4 | Hypoalbuminemia, drug-related adverse event, patients (200 mg QW (n = 9), All grades): 2 | Hypokalemia, drug-related adverse event, patients (200 mg QW (n = 9), All grades): 2 | Insulin c-peptide increased, drug-related adverse event, patients (200 mg QW (n = 9), All grades): 5 | Leukopenia, drug-related adverse event, patients (200 mg QW (n = 9), All grades): 8 | Localized edema, drug-related adverse event, patients (200 mg QW (n = 9), All grades): 4 | Lymphopenia, drug-related adverse event, patients (200 mg QW (n = 9), All grades): 2 | Nausea, drug-related adverse event, patients (200 mg QW (n = 9), All grades): 3 | Neutropenia, drug-related adverse event, patients (200 mg QW (n = 9), All grades): 4 | Palmar-plantar erythrodysaesthesia syndrome, drug-related adverse event, patients (200 mg QW (n = 9), All grades): 2 | Pruritus, drug-related adverse event, patients (200 mg QW (n = 9), All grades): 5 | Pyrexia, drug-related adverse event, patients (200 mg QW (n = 9), All grades): 5 | Rash, drug-related adverse event, patients (200 mg QW (n = 9), All grades): 6 | Stomatitis, drug-related adverse event, patients (200 mg QW (n = 9), All grades): 6 | Vomiting, drug-related adverse event, patients (200 mg QW (n = 9), All grades): 3 | ALT increased, drug-related adverse event, patients (200 mg QW (n = 9), Grades 3–5): 1 | Blood creatinine increased, drug-related adverse event, patients (200 mg QW (n = 9), Grades 3–5): 0 | Decreased appetite, drug-related adverse event, patients (200 mg QW (n = 9), Grades 3–5): 1 | Diarrhea, drug-related adverse event, patients (200 mg QW (n = 9), Grades 3–5): 0 | Dry skin, drug-related adverse event, patients (200 mg QW (n = 9), Grades 3–5): 0 | Eosinophil count increased, drug-related adverse event, patients (200 mg QW (n = 9), Grades 3–5): 0 | Eosinophilia, drug-related adverse event, patients (200 mg QW (n = 9), Grades 3–5): 0 | Erythema multiforme, drug-related adverse event, patients (200 mg QW (n = 9), Grades 3–5): 2 | Fatigue, drug-related adverse event, patients (200 mg QW (n = 9), Grades 3–5): 0 | HbA1C increased, drug-related adverse event, patients (200 mg QW (n = 9), Grades 3–5): 0 | Hyperglycemia, drug-related adverse event, patients (200 mg QW (n = 9), Grades 3–5): 2 | Hypernatremia, drug-related adverse event, patients (200 mg QW (n = 9), Grades 3–5): 1 | Hypoalbuminemia, drug-related adverse event, patients (200 mg QW (n = 9), Grades 3–5): 0 | Hypokalemia, drug-related adverse event, patients (200 mg QW (n = 9), Grades 3–5): 0 | Insulin c-peptide increased, drug-related adverse event, patients (200 mg QW (n = 9), Grades 3–5): 0 | Leukopenia, drug-related adverse event, patients (200 mg QW (n = 9), Grades 3–5): 1 | Localized edema, drug-related adverse event, patients (200 mg QW (n = 9), Grades 3–5): 0 | Lymphopenia, drug-related adverse event, patients (200 mg QW (n = 9), Grades 3–5): 2 | Nausea, drug-related adverse event, patients (200 mg QW (n = 9), Grades 3–5): 1 | Neutropenia, drug-related adverse event, patients (200 mg QW (n = 9), Grades 3–5): 0 | Palmar-plantar erythrodysaesthesia syndrome, drug-related adverse event, patients (200 mg QW (n = 9), Grades 3–5): 0 | Pruritus, drug-related adverse event, patients (200 mg QW (n = 9), Grades 3–5): 0 | Pyrexia, drug-related adverse event, patients (200 mg QW (n = 9), Grades 3–5): 0 | Rash, drug-related adverse event, patients (200 mg QW (n = 9), Grades 3–5): 0 | Stomatitis, drug-related adverse event, patients (200 mg QW (n = 9), Grades 3–5): 0 | Vomiting, drug-related adverse event, patients (200 mg QW (n = 9), Grades 3–5): 0 | time until onset of DLTs (200 mg QW, grade 3 facial edema and grade 3 erythema multiforme): 10 days | time until onset of DLTs (200 mg QW, grade 3 hyperglycemia and grade 3 erythema multiforme): 11 days | time until onset of DLT (200 mg QW, grade 4 hyponatremia): 10 days | ALT increased, drug-related adverse event, patients (Total (n = 24), All grades): 4 | Blood creatinine increased, drug-related adverse event, patients (Total (n = 24), All grades): 8/24 and 8 | Decreased appetite, drug-related adverse event, patients (Total (n = 24), All grades): 7 | Diarrhea, drug-related adverse event, patients (Total (n = 24), All grades): 10/24 and 10 | Dry skin, drug-related adverse event, patients (Total (n = 24), All grades): 5 | Eosinophil count increased, drug-related adverse event, patients (Total (n = 24), All grades): 7 | Eosinophilia, drug-related adverse event, patients (Total (n = 24), All grades): 13/24 and 13 | Erythema multiforme, drug-related adverse event, patients (Total (n = 24), All grades): 4 | Fatigue, drug-related adverse event, patients (Total (n = 24), All grades): 10 | HbA1C increased, drug-related adverse event, patients (Total (n = 24), All grades): 7 | Hyperglycemia, drug-related adverse event, patients (Total (n = 24), All grades): 12/24 and 12 | Hypernatremia, drug-related adverse event, patients (Total (n = 24), All grades): 5 | Hypoalbuminemia, drug-related adverse event, patients (Total (n = 24), All grades): 4 | Hypokalemia, drug-related adverse event, patients (Total (n = 24), All grades): 4 | Insulin c-peptide increased, drug-related adverse event, patients (Total (n = 24), All grades): 16/24 and 16 | Leukopenia, drug-related adverse event, patients (Total (n = 24), All grades): 12/24 and 12 | Localized edema, drug-related adverse event, patients (Total (n = 24), All grades): 4 | Lymphopenia, drug-related adverse event, patients (Total (n = 24), All grades): 9/24 and 9 | Nausea, drug-related adverse event, patients (Total (n = 24), All grades): 5 | Neutropenia, drug-related adverse event, patients (Total (n = 24), All grades): 9/24 and 9 | Palmar-plantar erythrodysaesthesia syndrome, drug-related adverse event, patients (Total (n = 24), All grades): 4 | Pruritus, drug-related adverse event, patients (Total (n = 24), All grades): 10 | Pyrexia, drug-related adverse event, patients (Total (n = 24), All grades): 13/24 and 13 | Rash, drug-related adverse event, patients (Total (n = 24), All grades): 20/24 and 20 | Stomatitis, drug-related adverse event, patients (Total (n = 24), All grades): 14/24 and 14 | Vomiting, drug-related adverse event, patients (Total (n = 24), All grades): 4 | ALT increased, drug-related adverse event, patients (Total (n = 24), Grades 3–5): 1 | Blood creatinine increased, drug-related adverse event, patients (Total (n = 24), Grades 3–5): 0 | Decreased appetite, drug-related adverse event, patients (Total (n = 24), Grades 3–5): 1 | Diarrhea, drug-related adverse event, patients (Total (n = 24), Grades 3–5): 1 | Dry skin, drug-related adverse event, patients (Total (n = 24), Grades 3–5): 0 | Eosinophil count increased, drug-related adverse event, patients (Total (n = 24), Grades 3–5): 0 | Eosinophilia, drug-related adverse event, patients (Total (n = 24), Grades 3–5): 0 | Erythema multiforme, drug-related adverse event, patients (Total (n = 24), Grades 3–5): 2 | Fatigue, drug-related adverse event, patients (Total (n = 24), Grades 3–5): 0 | HbA1C increased, drug-related adverse event, patients (Total (n = 24), Grades 3–5): 0 | Hyperglycemia, drug-related adverse event, patients (Total (n = 24), Grades 3–5): 2 | Hypernatremia, drug-related adverse event, patients (Total (n = 24), Grades 3–5): 1 | Hypoalbuminemia, drug-related adverse event, patients (Total (n = 24), Grades 3–5): 0 | Hypokalemia, drug-related adverse event, patients (Total (n = 24), Grades 3–5): 0 | Insulin c-peptide increased, drug-related adverse event, patients (Total (n = 24), Grades 3–5): 0 | Leukopenia, drug-related adverse event, patients (Total (n = 24), Grades 3–5): 1 | Localized edema, drug-related adverse event, patients (Total (n = 24), Grades 3–5): 0 | Lymphopenia, drug-related adverse event, patients (Total (n = 24), Grades 3–5): 6 | Nausea, drug-related adverse event, patients (Total (n = 24), Grades 3–5): 1 | Neutropenia, drug-related adverse event, patients (Total (n = 24), Grades 3–5): 1 | Palmar-plantar erythrodysaesthesia syndrome, drug-related adverse event, patients (Total (n = 24), Grades 3–5): 0 | Pruritus, drug-related adverse event, patients (Total (n = 24), Grades 3–5): 0 | Pyrexia, drug-related adverse event, patients (Total (n = 24), Grades 3–5): 0 | Rash, drug-related adverse event, patients (Total (n = 24), Grades 3–5): 1 | Stomatitis, drug-related adverse event, patients (Total (n = 24), Grades 3–5): 0 | Vomiting, drug-related adverse event, patients (Total (n = 24), Grades 3–5): 0 | treatment-related deaths (all cohorts): No treatment-related deaths | diarrhea related to MK-2206, percent of patients [1]: 41.7% | elevated blood creatinine level related to MK-2206, percent of patients [1]: 33.3% | elevated insulin c-peptide level related to MK-2206, percent of patients [1]: 66.7% | eosinophilia related to MK-2206, percent of patients [1]: 54.2% | hyperglycemia related to MK-2206, percent of patients [1]: 50.0% | leukopenia related to MK-2206, percent of patients [1]: 50.0% | lymphopenia related to MK-2206, percent of patients [1]: 37.5% | neutropenia related to MK-2206, percent of patients [1]: 37.5% | pyrexia related to MK-2206, percent of patients [1]: 54.2% | rash related to MK-2206, percent of patients [1]: 83.3% | stomatitis related to MK-2206, percent of patients [1]: 58.3%
